A short description of one data set: Depressant activity. It counts as in vivo. The settings on record: result in words.
The subject of another data set is blood pressure. As to the kind of experiment: Tests for action on the cardiovascular system: hypotensive activity (activity in method 1, rats or cats, or method 2), reported in words. It counts as in vivo, rat, cat. Particulars: standard test procedure, result in words. The method, then: Tests for action on the cardiovascular system were conducted according to one of the following procedures:
Cats were anaesthetised with pentobarbitone sodium (30 mg/kg) and the cephalic vein, femoral and carotid arteries and trachea were cannulated. The carotid cannula was introduced into the left ventricle and the femoral cannula into the aorta. Blood pressure and heart rate were recorded from the aortic cannula and left ventricular pressure from the carotid cannula. The test compunds were administered intravenously (0.1-25.6 mg/kg).
Method 2 (hypertensive rats)
Male or female rats are rendered hypertensive by applying a figure of 8 ligature around one kidney and contralateral nephrectomy. Blood pressure stabilises at a hypertensive level after 6 weeks. Systolic pressure is measured indirectly using a Decker Caudal Plethysmograph A control group of rats is run with each group treated with drug. Each group usually consists of six rats. Drugs are usually administered by the IP or oral routes. Pressures are read prior to drug administration and at two and 24 hours thereafter.

Data set [1] has as its system blood pressure and heart rate. Put plainly: Method 1 (rat): hypotensive activity in anaesthetised rats, i.v. The settings on record: for minimal effective dose: Rattus norvegicus, iv.
Method: Rats were anaesthetised with pentobarbitone sodium (60 mg/kg) and the jugular vein, trachea and carotid artery were cannulated. […] A decrease in heart rate of more than 30% from control values was considered to be significant bradycardia.
In the next data set the target is T1, histamine (Cavia porcellus, UniProt P31389).
T1 construct: from tissue
T1 sequence (P31389 whole entry): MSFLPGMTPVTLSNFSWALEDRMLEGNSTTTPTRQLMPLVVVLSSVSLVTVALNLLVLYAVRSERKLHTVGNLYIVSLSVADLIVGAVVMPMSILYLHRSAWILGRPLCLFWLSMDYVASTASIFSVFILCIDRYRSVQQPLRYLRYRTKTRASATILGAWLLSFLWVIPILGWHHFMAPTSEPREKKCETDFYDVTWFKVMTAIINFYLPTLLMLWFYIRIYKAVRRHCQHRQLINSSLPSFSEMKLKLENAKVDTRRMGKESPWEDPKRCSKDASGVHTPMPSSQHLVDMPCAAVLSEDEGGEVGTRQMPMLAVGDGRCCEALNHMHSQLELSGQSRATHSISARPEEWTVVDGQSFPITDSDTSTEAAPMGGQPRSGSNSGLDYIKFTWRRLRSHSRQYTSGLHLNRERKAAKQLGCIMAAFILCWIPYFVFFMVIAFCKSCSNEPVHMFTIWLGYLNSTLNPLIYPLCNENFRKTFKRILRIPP
As to the kind of experiment: Antihistamine activity by the method of Alps et al. The settings on record: for antihistamine activity: result in words.

In the next data set the test system is α-adrenoceptor. As to the kind of experiment: α-Adrenoceptor antagonism on the guinea pig aortic strip. Particulars: for α-blockade pA2: Table 4; for α-adrenoceptor antagonism: result in words. From the text: Carried out on the guinea pig aortic strip [Furchgott and Bhadrakom (1953) J. Pharmac. exp. Ther. 108, 129-143] by the method of Alps et al [Br. J. Pharmac. 1972 44, 52-62].

Data set [2] is described as follows: Anti-inflammatory activity. The settings on record: result in words. The format is in vivo.
[3] abbreviates: 0.25 h, read-out: Hypotensive Activity.
[4] abbreviates: Table 4, read-out: Antihistamine pA2 (converted).

SMILES strings stand for the structures. Like-named read-outs stand apart in the source and are kept apart here.

With `COc1ccc(CCN2CCC(N)CC2)cc1OC` [Example 4, 1-[2-(3,4-Dimethoxyphenyl)ethyl]-4-aminopiperidine], the depressant activity entry in the data set “Depressant activity” was “depressant activity”. Further, in the data set on blood pressure, the hypotensive activity entry was “hypotensive”.
With `COc1ccc(CCN2CCC(NC(=O)c3ccc4c(c3)OCO4)CC2)cc1OC` [Example 7, 1-[2-(3,4-Dimethoxyphenyl)ethyl]-4-piperonylamidopiperidine], in “Depressant activity”, the depressant activity result is “depressant activity”. The minimal effective dose in data set [1] (setting [3]) is under 30 mg/kg. The hypotensive activity entry in the data set on blood pressure is listed as “hypotensive”.
With `O=C(NC1CCN(CCc2ccc(O)c(O)c2)CC1)c1ccccc1` [Example 9, 1-[2(3,4-Dihydroxyphenyl)ethyl]-4-benzamidopiperidine], the depressant activity entry in “Depressant activity” was “depressant activity”. Moreover, the minimal effective dose in data set [1] (setting [3]) was under 30 mg/kg. Moreover, at histamine, the antihistamine activity entry is “antihistamine”.
`O=C(CN1CCC(NC(=O)c2ccccc2)CC1)c1ccccc1` [Example 10, 1-Phenacyl-4-benzamidopiperidine]: in the data set with α-adrenoceptor, the “α-blockade pA2” value came out at 5.8. Besides, the depressant activity entry in the data set “Depressant activity” was “depressant activity”. The minimal effective dose in data set [1] (setting [3]) is 6.4 to 12.8 mg/kg. Moreover, in the data set with blood pressure, the hypotensive activity result is recorded as “hypotensive”.
In the case of `O=C(NC1CCN(CCc2cccc3ccccc23)CC1)c1ccccc1` [Example 12, 1-[2-(1-Naphthyl)ethyl]-4-benzamidopiperidine], the depressant activity result in the data set “Depressant activity” is given as “depressant activity”. The minimal effective dose in data set [1] (setting [3]) is under 30 mg/kg.
As to `O=C(NC1CCN(CCCC2=CCc3ccccc32)CC1)c1ccccc1` [Example 15, 1-[3-(3-Indenyl)propyl]-4-benzamidopiperidine], the “α-blockade pA2” value in the data set with α-adrenoceptor was 7.4. The minimal effective dose in data set [1] (setting [3]) lay in the range of 6.4 to 12.8 mg/kg. Besides, in the data set on blood pressure, the hypotensive activity entry is given as “hypotensive”. Moreover, the antihistamine activity result at histamine is listed as “antihistamine activities”.
Consider `Cc1ccccc1NC(=O)CCN1CCC(NC(=O)c2ccccc2)CC1` [Example 16, 1-[N-(2-Methylphenyl)carbamoylethyl]-4-benzamidopiperidine], for which the depressant activity entry in “Depressant activity” is “depressant activity”.
Take `CC(=O)Nc1ccc(OCC(O)CN2CCC(NC(=O)c3ccccc3)CC2)cc1` (stereo not shown) [Example 17, 1-[1-(4-Acetamidophenoxy)-2-hydroxyprop-3-yl]-4-benzamidopiperidine]: in data set [1] (setting [3]), the minimal effective dose was under 30 mg/kg. Moreover, the hypotensive activity entry with blood pressure is “hypotensive activity”. Further, the Kb at histamine (setting [4]) was 100 nM. Besides, the antihistamine activity result at histamine is listed as “antihistamine activity”.
For `CC(=O)Nc1ccc(O)c(CN2CCC(NC(=O)c3ccccc3)CC2)c1` [Example 18, 1-(5-Acetamido-2-hydroxybenzyl)-4-benzamidopiperidine], the depressant activity result in “Depressant activity” is reported as “depressant activity”. For the same compound, the minimal effective dose in data set [1] (setting [3]) was under 30 mg/kg.
Take `O=C(NC1CCN(CC(O)COc2cccc3ccccc23)CC1)c1ccccc1` (stereo not shown) [Example 21, 1-[3-(1-Naphthoxy)-2-hydroxyprop-1-yl]-4-benzamidopiperidine]: in the data set “Depressant activity”, the depressant activity result was “some depressant activity”. Further, the minimal effective dose in data set [1] (setting [3]) was in the range of 6.4 to 12.8 mg/kg. In addition, the hypotensive activity result in the data set on blood pressure was “hypotensive activity”.
The like results for `Nc1ccc(CCN2CCC(NC(=O)c3ccccc3)CC2)cc1` [Example 23, 1-[2-(p-Aminophenyl)ethyl]-4-benzamidopiperidine] were, in that order, “depressant activity”, under 30 mg/kg and “hypotensive activity”.
As for `O=C(NC1CCN(CCc2ccccc2)CC1)c1ccccc1` [Example 27, 1-Phenethyl-4-benzamidopiperidine], the “pA2 (α-adrenoceptor antagonism)” value in the data set on α-adrenoceptor (guinea pig aortic strip) is 5.7. Further, the minimal effective dose in data set [1] (setting [3]) is 1.6 to 3.2 mg/kg; in data set [1] (read-out: Significant hypotension (dose; fall of 30 mm mercury or more in diastolic pressure)) it was 3.2 mg/kg. Also, the “Fatal (dose)” value in data set [1] (anaesthetised rat, i.v., cumulative dose) lay in the range of 12.8 to 25.6 mg/kg. Also, the hypotensive activity entry in the data set with blood pressure is “hypotensive activity”. Also, the Kb at histamine (Table 2) is 79.4 nM.
Regarding `O=C(CN1CCC(NC(=O)c2ccccc2)CC1)c1ccc(Cl)c(Cl)c1` [Example 34], the depressant activity result in the data set “Depressant activity” is reported as “depressant activities”. In data set [1] (setting [3]), the minimal effective dose was under 30 mg/kg. Further, the hypotensive activity result in the data set with blood pressure is recorded as “hypotensive”.
Take `Nc1ccccc1CCN1CCC(NC(=O)c2ccccc2)CC1` [Example 35, 1-[2-(o-Aminophenyl)ethyl]-4-benzamidopiperidine]: the depressant activity entry in the data set “Depressant activity” is on record as “depressant activities”. In addition, the minimal effective dose in data set [1] (setting [3]) fell in the range of 6.4 to 12.8 mg/kg. Besides, the hypotensive activity entry with blood pressure is given as “hypotensive”.
Consider `O=C(NC1CCN(CCCCc2ccc(F)cc2)CC1)c1ccccc1` [Example 40, 1-[4-(p-Fluorophenyl)-n-butyl]-4-benzamidopiperidine], for which, in the data set on α-adrenoceptor, the “α-blockade pA2” value was 6.4 and the α-adrenoceptor antagonism result is “α-adrenoceptor antagonism”. In data set [1] (setting [3]), the minimal effective dose lay within 1.6 to 3.2 mg/kg. In addition, the hypotensive activity entry with blood pressure was “hypotensive activity”. On histamine (setting [4]), the Kb is 31.6 nM. Also, the antihistamine activity result at histamine is “anti-histamine activity”.
Turning to `Cc1ccc(C)c(C(=O)CCCN2CCC(NC(=O)c3ccccc3)CC2)c1` [Example 44, 4-Benzamido-1-[4-(2,5-dimethylphenyl)-4-oxobutyl]piperidine], in the data set on α-adrenoceptor, the “α-blockade pA2” value amounted to 7.5 and the α-adrenoceptor antagonism entry is on record as “α-adrenoceptor antagonist activities”. Further, the minimal effective dose in data set [1] (setting [3]) lay within 1.6 to 3.2 mg/kg. In addition, the hypotensive activity entry with blood pressure is “hypotensive activity”. Further, the Kb on histamine (setting [4]) is 20 nM. On histamine, the antihistamine activity entry is reported as “antihistamine”.
Turning to `Cc1ccc(C(=O)CCCN2CCC(NC(=O)c3ccccc3)CC2)c(C)c1` [Example 45, 4-Benzamido-1-[4-(2,4-dimethylphenyl)-4-oxo-butyl]piperidine], in the data set with α-adrenoceptor, the “α-blockade pA2” value amounted to 7.2 and the α-adrenoceptor antagonism entry was “α-adrenoceptor antagonist activity”. Further, the minimal effective dose in data set [1] (setting [3]) fell in the range of 1.6 to 3.2 mg/kg. Moreover, the hypotensive activity entry in the data set on blood pressure is “hypotensive activity”. Moreover, the Kb at histamine (setting [4]) was 10 nM. On histamine, the antihistamine activity entry is listed as “antihistamine”.
Take `O=C(NC1CCN(CCCCc2ccccc2)CC1)c1ccccc1` [Example 46, 1-(4-Phenylbutyl)-4-benzamidopiperidine]: in the data set with α-adrenoceptor, the “α-blockade pA2” value is recorded as 6.95 and the α-adrenoceptor antagonism result is on record as “α-adrenoceptor antagonist”. For the same compound, the minimal effective dose in data set [1] (setting [3]) was 6.4 to 12.8 mg/kg. Moreover, the hypotensive activity entry in the data set on blood pressure is listed as “hypotensive activity”. Also, at histamine (setting [4]), the Kb was 39.8 nM. The antihistamine activity entry at histamine is “antihistamine activity”.
With `O=C(NC1CCN(Cc2ccc3c(c2)OCO3)CC1)c1ccccc1` [Example 47, 4-Benzamido-1-(3,4-methylenedioxybenzyl)piperidine], the anti-inflammatory activity result in data set [2] is recorded as “anti-inflammatory activity”. The minimal effective dose in data set [1] (setting [3]) is 25.6 mg/kg. Besides, the hypotensive activity result with blood pressure is “hypotensive activity”.
As for `O=C(NC1CCN(CCCC(O)c2ccc3c(c2)CCCC3)CC1)c1ccccc1` (stereo not shown) [Example 79, 1-[4-(1',2',3',4'-Tetrahydro-6'-naphthyl)-4-hydroxybutyl]-4-benzamidopiperidine], the “α-blockade pA2” value in the data set on α-adrenoceptor was 6.05. The minimal effective dose in data set [1] (setting [3]) was in the range of 1.6 to 3.2 mg/kg. Besides, the hypotensive activity entry with blood pressure was “hypotensive activity”. Besides, the Kb at histamine (setting [4]) is 100 nM.
In the case of `O=C(NC1CCN(CCc2ccncc2)CC1)c1ccccc1` [Example 93, 1-[2-(4-Pyridyl)ethyl]-4-benzamidopiperidine], the minimal effective dose in data set [1] (setting [3]) was under 30 mg/kg. Besides, the hypotensive activity result in the data set on blood pressure is “marked hypotensive activity”. Also, on histamine, the antihistamine activity entry is reported as “antihistamine activity”.
As to `O=C(NC1CCN(CCc2ccccn2)CC1)c1ccccc1` [Example 94, 1-[2-(2-Pyridyl)ethyl]-4-benzamidopiperidine], in the data set “Depressant activity”, the depressant activity entry is “depressant activities”. Further, the hypotensive activity entry in the data set on blood pressure is given as “marked hypotensive activity”. The antihistamine activity entry on histamine was “antihistamine”.
As to `O=C(NC1CCN(CCc2c[nH]cn2)CC1)c1ccccc1` [Example 96, 1-[2-(4-Imidazolyl)ethyl]-4-benzamidopiperidine], the minimal effective dose in data set [1] (setting [3]) was in the range of 6.4 to 12.8 mg/kg. Moreover, the hypotensive activity result with blood pressure is reported as “hypotensive activity”. Also, the antihistamine activity entry on histamine is “anti-histamine activity”.
In the case of `O=C(NC1CCN(CCc2csc3ccccc23)CC1)c1ccccc1` [Example 100, 1-[2-(3-Benzo[b]thienyl)ethyl]-4-benzamidopiperidine], the minimal effective dose in data set [1] (setting [3]) is under 30 mg/kg. Besides, the hypotensive activity result with blood pressure was “hypotensive activity”. Besides, the antihistamine activity entry on histamine was “antihistamine activity”.
Take `O=C(NC1CCN(CCc2c[nH]c3c2ccc2ccccc23)CC1)c1ccccc1` [Example 101, 1-[2-(3-Benz[g]indolyl)ethyl]-4-benzamidopiperidine]: in “Depressant activity”, the depressant activity entry is recorded as “depressant activity”. Besides, the minimal effective dose in data set [1] (setting [3]) is 6.4 to 12.8 mg/kg. In the data set on blood pressure, the hypotensive activity result is reported as “marked hypotensive activity”.
Consider `O=C(NC1CCN(CC2COc3ccccc3O2)CC1)c1ccccc1` (stereo not shown) [Example 102, 2-(4'-Benzamidopiperid-1-yl)methylbenzo-1,4-dioxan], for which the anti-inflammatory activity entry in data set [2] is on record as “anti-inflammatory activity”. Besides, in the data set on blood pressure, the hypotensive activity result is “marked hypotensive activity”.

For the origin of these results see patent US4029801A, “Pharmaceutical compositions and methods of treating hypertension” (priority 1970, dated 1977).
